Among the data in patent US8119681B2, “2-[1-phenyl-5-hydroxy or methoxy-4alpha-methyl-hexahydrocyclopenta [ƒ]indazole-5-YL]ethyl phenyl derivatives as glucocorticoid receptor ligands” (Merck Sharp & Dohme Corp., priority 2006, dated 2012) are Emax values, retold here.

The experiment concerns the target T1, human GR (Homo sapiens, UniProt P04150).
T1 sequence (P04150 1-777): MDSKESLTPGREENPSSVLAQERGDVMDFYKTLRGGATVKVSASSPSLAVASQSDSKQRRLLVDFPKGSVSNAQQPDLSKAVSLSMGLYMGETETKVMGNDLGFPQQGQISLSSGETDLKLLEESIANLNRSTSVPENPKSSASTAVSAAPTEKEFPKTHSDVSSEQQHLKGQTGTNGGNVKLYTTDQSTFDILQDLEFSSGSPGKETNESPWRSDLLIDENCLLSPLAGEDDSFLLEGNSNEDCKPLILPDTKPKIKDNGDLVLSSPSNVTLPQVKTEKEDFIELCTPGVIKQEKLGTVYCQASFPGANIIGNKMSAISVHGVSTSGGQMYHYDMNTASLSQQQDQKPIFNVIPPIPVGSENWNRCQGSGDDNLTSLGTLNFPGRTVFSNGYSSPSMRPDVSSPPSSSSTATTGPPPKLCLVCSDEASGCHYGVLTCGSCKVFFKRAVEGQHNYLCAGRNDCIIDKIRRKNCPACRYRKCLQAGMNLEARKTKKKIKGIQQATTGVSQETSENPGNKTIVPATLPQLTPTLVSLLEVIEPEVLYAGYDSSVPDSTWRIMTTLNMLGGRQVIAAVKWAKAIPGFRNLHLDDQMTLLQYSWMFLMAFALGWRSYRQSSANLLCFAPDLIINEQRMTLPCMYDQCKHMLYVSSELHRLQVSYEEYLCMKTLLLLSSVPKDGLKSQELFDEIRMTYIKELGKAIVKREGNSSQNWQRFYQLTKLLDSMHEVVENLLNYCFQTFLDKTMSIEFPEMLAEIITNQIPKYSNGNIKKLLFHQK
The experiment is described as follows: Transrepression Assay (GITAR), TNFα-β-lactamase reporter gene in U937 cells. The note with it: U-937; 100 nM dexamethasone = 100% activity; read-out: maximal activity in the transrepression assay. The format is cell-based. On the set-up: U937 cells contain an endogenous glucocorticoid receptor (GR); endogenous in cells; host or cells: U937 cells stably transfected with the TNF-α promoter/β-lactamase reporter only. An excerpt:
Transrepression Assay (GITAR)
This assay assesses the ability of test compounds to control transcription from the TNFα-β-lactamase reporter gene in U937 cells, a human myelomonocytic leukemia cell line that naturally expresses the human GR. The assay measures compound dependent-repression of the TNFa promoter linked to a reporter gene.
The human U937 cells that had been stably transfected with the TNF-α promoter driving β-lactamase are used for this assay. U937 cells contain an endogenous glucocorticoid receptor (GR). […] 50,000 cells/well are plated in 96 well black-walled plates the day of assay. Test compounds are added 10 μL/well, and cells are incubated at 37° C. for 30˜45 min. For assaying compounds, first dilute 1:10 in DMSO to make 1 mM, then further dilute 1:100 in medium to make 10× stock prior to adding to the cells. Add 50 ng/ml PMA (Sigma, cat# P8139) 10 μL/well to a final concentration 5 ng/ml, and 1 μg/ml LPS (Sigma, cat# L4130) 10 μL/well to a final concentration 100 ng/ml. Incubate cells at 370 C overnight for ˜18 hr. PMA is stored frozen as 100 μg/ml stock in DMSO. Dilute 1:10 in DMSO for a working stock of 10 μg/ml and store at −20 C. For assaying, dilute the 10 μg/ml working stock 1:200 in medium to make a 10× solution (50 ng/ml). Store frozen LPS at 1 mg/ml in PBS, dilute 1:1000 in medium to make 10× (1 μg/ml) for the assay. Add 6× loading buffer (CCF2-AM) 20 μL/well, and incubate at room temperature for 70˜90 min. […] The activity repressed by 100 nM dexamethasone alone is set as 100% activity.
In general terms: Reporter assays use an easily measured gene product as a stand-in for the process of interest.
Regarding `C[C@]12Cc3cnn(-c4ccc(F)cc4)c3C=C1CC[C@@]2(O)CCc1cccc(F)c1C(=O)N1CC[C@H](F)C1` [Example 69, (4αS,5R)-5-[2-(3-fluoro-2-{[(3S)-3-fluoropyrrolidin-1-yl]carbonyl}phenyl)ethyl]-1-(4-fluorophenyl)-4α-methyl-1,4,4α,5,6,7-hexahydrocyclopenta[f]indazol-5-ol], the Emax fell in the range of 5 to 100%.
As for `CC(C)(NC(=O)c1ccccc1CC[C@]1(O)CCC2=Cc3c(cnn3-c3ccc(F)cc3)C[C@@]21C)C(N)=O` [Example 70, N-(2-amino-1,1-dimethyl-2-oxoethyl)-2-{2-[(4αS,5R)-1-(4-fluorophenyl)-5-hydroxy-4α-methyl-1,4,4α,5,6,7-hexahydrocyclopenta[f]indazol-5-yl]ethyl}benzamide], the figure is 5 to 100%.
As for `CCNC(=O)C(C)(C)NC(=O)c1ccccc1CC[C@]1(O)CCC2=Cc3c(cnn3-c3ccc(F)cc3)C[C@@]21C` [Example 71, N-[2-(ethylamino)-1,1-dimethyl-2-oxoethyl]-2-{2-[(4αS,5R)-1-(4-fluorophenyl)-5-hydroxy-4α-methyl-1,4,4α,5,6,7-hexahydrocyclopenta[f]indazol-5-yl]ethyl}benzamide], the figure is 5 to 100%.
As for `COC(=O)[C@@H](C)NC(=O)c1ccccc1CC[C@]1(O)CCC2=Cc3c(cnn3-c3ccc(F)cc3)C[C@@]21C` [Example 72, methyl N-(2-{2-[(4αS,5R)-1-(4-fluorophenyl)-5-hydroxy-4α-methyl-1,4,4α,5,6,7-hexahydrocyclopenta[f]indazol-5-yl]ethyl}benzoyl)-D-alaninate], the figure is 5 to 100%; as for `CC1CN1C(=O)c1ccccc1CC[C@]1(O)CCC2=Cc3c(cnn3-c3ccc(F)cc3)C[C@@]21C` (stereo partly drawn) [Example 73, (4αS,5R)-1-(4-fluorophenyl)-4α-methyl-5-(2-{2-[(2-methylaziridin-1-yl)carbonyl]phenyl}ethyl)-1,4,4α,5,6,7-hexahydrocyclopenta[f]indazol-5-ol], 5 to 100%; as for `C[C@]12Cc3cnn(-c4ccc(F)cc4)c3C=C1CC[C@@]2(O)CCc1ccccc1C(=O)N1CCC(F)(F)C1` [Example 74, (4αS,5R)-5-(2-{2-[(3,3-difluoropyrrolidin-1-yl)carbonyl]phenyl}ethyl)-1-(4-fluorophenyl)-4α-methyl-1,4,4α,5,6,7-hexahydrocyclopenta[f]indazol-5-ol], 5 to 100%.
Take `CNC(=O)C(C)(C)NC(=O)c1ccccc1CC[C@]1(O)CCC2=Cc3c(cnn3-c3ccc(F)cc3)C[C@@]21C` [Example 75, N-[1,1-dimethyl-2-(methylamino)-2-oxoethyl]-2-{2-[(4αS,5R)-1-(4-fluorophenyl)-5-hydroxy-4α-methyl-1,4,4α,5,6,7-hexahydrocyclopenta[f]indazol-5-yl]ethyl}benzamide]: the Emax lay within 5 to 100%.
As for `C[C@]12Cc3cnn(-c4ccc(F)cc4)c3C=C1CC[C@@]2(O)CCc1cccc(F)c1C(=O)N1CCCC(F)(F)C1` [Example 76, (4αS,5R)-5-(2-{2-[(3,3-difluoropiperidin-1-yl)carbonyl]-3-fluorophenyl}ethyl)-1-(4-fluorophenyl)-4α-methyl-1,4,4α,5,6,7-hexahydrocyclopenta[f]indazol-5-ol], the figure is 5 to 100%.
As for `C[C@]12Cc3cnn(-c4ccc(F)cc4)c3C=C1CC[C@@]2(O)CCc1cccc(F)c1C(=O)N1CCC(F)(F)C1` [Example 77, (4αS,5R)-5-(2-{2-[(3,3-difluoropyrrolidin-1-yl)carbonyl]-3-fluorophenyl}ethyl)-1-(4-fluorophenyl)-4α-methyl-1,4,4α,5,6,7-hexahydrocyclopenta[f]indazol-5-ol], the figure is 5 to 100%; as for `C[C@]12Cc3cnn(-c4ccc(F)cc4)c3C=C1CC[C@@]2(O)CCc1cccc(F)c1CNS(=O)(=O)c1ccccc1` [Example 78, N-(2-fluoro-6-{2-[(4αS,5R)-1-(4-fluorophenyl)-5-hydroxy-4α-methyl-1,4,4α,5,6,7-hexahydrocyclopenta[f]indazol-5-yl]ethyl}benzyl)benzenesulfonamide], 5 to 100%.
As for `C[C@]12Cc3cnn(-c4ccc(F)cc4)c3C=C1CC[C@@]2(O)CCc1cccc(F)c1CNS(=O)(=O)c1ccc(F)cc1F` [Example 79, 2,4-difluoro-N-(2-fluoro-6-{2-[(4αS,5R)-1-(4-fluorophenyl)-5-hydroxy-4α-methyl-1,4,4α,5,6,7-hexahydrocyclopenta[f]indazol-5-yl]ethyl}benzyl)benzenesulfonamide], the figure is 5 to 100%.
For the compound `C[C@]12Cc3cnn(-c4ccc(F)cc4)c3C=C1CC[C@@]2(O)CCc1cccc(F)c1CNS(=O)(=O)c1ccccc1F` [Example 80, 2-fluoro-N-(2-fluoro-6-{2-[(4αS,5R)-1-(4-fluorophenyl)-5-hydroxy-4α-methyl-1,4,4α,5,6,7-hexahydrocyclopenta[f]indazol-5-yl]ethyl}benzyl)benzenesulfonamide], the Emax fell in the range of 5 to 100%.
Consider `C[C@]12Cc3cnn(-c4ccc(F)cc4)c3C=C1CC[C@@]2(O)CCc1cccc(F)c1CNS(=O)(=O)c1cccc(C#N)c1` [Example 81, 3-cyano-N-(2-fluoro-6-{2-[(4αS,5R)-1-(4-fluorophenyl)-5-hydroxy-4α-methyl-1,4,4α,5,6,7-hexahydrocyclopenta[f]indazol-5-yl]ethyl}benzyl)benzenesulfonamide], for which the Emax was 5 to 100%.
As for `C[C@]12Cc3cnn(-c4ccc(F)cc4)c3C=C1CC[C@@]2(O)CCc1cccc(F)c1CNS(=O)(=O)c1cccnc1` [Example 82, N-(2-fluoro-6-{2-[(4αS,5R)-1-(4-fluorophenyl)-5-hydroxy-4α-methyl-1,4,4α,5,6,7-hexahydrocyclopenta[f]indazol-5-yl]ethyl}benzyl)pyridine-3-sulfonamide], the figure is 5 to 100%.
As for `C[C@]12Cc3cnn(-c4ccc(F)cc4)c3C=C1CC[C@@]2(O)CCc1ccccc1CNS(C)(=O)=O` [Example 87, N-(2-{2-[(4αS,5R)-1-(4-fluorophenyl)-5-hydroxy-4α-methyl-1,4,4α,5,6,7-hexahydrocyclopenta[f]indazol-5-yl]ethyl}benzyl)methanesulfonamide], the figure is 5 to 100%; as for `C[C@]12Cc3cnn(-c4ccc(F)cc4)c3C=C1CC[C@@]2(O)CCc1ccccc1CNS(=O)(=O)CC(F)(F)F` [Example 90, 2,2,2-trifluoro-N-(2-{2-[(4αS,5R)-1-(4-fluorophenyl)-5-hydroxy-4α-methyl-1,4,4α,5,6,7-hexahydrocyclopenta[f]indazol-5-yl]ethyl}benzyl)ethanesulfonamide], 5 to 100%.
As for `C[C@]12Cc3cnn(-c4ccc(F)cc4)c3C=C1CC[C@@]2(O)CCc1cccc(F)c1CNS(=O)(=O)c1ccco1` [Example 92, N-(2-fluoro-6-{2-[(4αS,5R)-1-(4-fluorophenyl)-5-hydroxy-4α-methyl-1,4,4α,5,6,7-hexahydrocyclopenta[f]indazol-5-yl]ethyl}benzyl)furan-2-sulfonamide], the figure is 5 to 100%.
Take `Cn1cnc(S(=O)(=O)NCc2c(F)cccc2CC[C@]2(O)CCC3=Cc4c(cnn4-c4ccc(F)cc4)C[C@@]32C)c1` [Example 93, N-(2-fluoro-6-{2-[(4αS,5R)-1-(4-fluorophenyl)-5-hydroxy-4α-methyl-1,4,4α,5,6,7-hexahydrocyclopenta[f]indazol-5-yl]ethyl}benzyl)-1-methyl-1H-imidazole-4-sulfonamide]: the Emax was 5 to 100%.
As for `C[C@]12Cc3cnn(-c4ccc(F)cc4)c3C=C1CC[C@@]2(O)CCc1cccc(F)c1CNS(=O)(=O)c1ccccc1C#N` [Example 94, 2-cyano-N-(2-fluoro-6-{2-[(4αS,5R)-1-(4-fluorophenyl)-5-hydroxy-4α-methyl-1,4,4α,5,6,7-hexahydrocyclopenta[f]indazol-5-yl]ethyl}benzyl)benzenesulfonamide], the figure is 5 to 100%.
